These results are taken from US10183950B2, “Thienopyrimidine inhibitors of atypical protein kinase C” (Cancer Research Technology Limited, priority 2011, dated 2019).

The structures appear in SMILES notation. A value given as a limit tells only on which side of the number the result lay.

The IC50 is the concentration that inhibits the measured activity by half.

The target in one assay is T1, full-length human PKCι (Homo sapiens, UniProt P41743).
T1 construct: Recombinant, full-length human PKCι expressed in Sf21 insect cells is also commercially available; purchased; host or cells: Sf21 insect cells
T1 sequence (P41743 1-596): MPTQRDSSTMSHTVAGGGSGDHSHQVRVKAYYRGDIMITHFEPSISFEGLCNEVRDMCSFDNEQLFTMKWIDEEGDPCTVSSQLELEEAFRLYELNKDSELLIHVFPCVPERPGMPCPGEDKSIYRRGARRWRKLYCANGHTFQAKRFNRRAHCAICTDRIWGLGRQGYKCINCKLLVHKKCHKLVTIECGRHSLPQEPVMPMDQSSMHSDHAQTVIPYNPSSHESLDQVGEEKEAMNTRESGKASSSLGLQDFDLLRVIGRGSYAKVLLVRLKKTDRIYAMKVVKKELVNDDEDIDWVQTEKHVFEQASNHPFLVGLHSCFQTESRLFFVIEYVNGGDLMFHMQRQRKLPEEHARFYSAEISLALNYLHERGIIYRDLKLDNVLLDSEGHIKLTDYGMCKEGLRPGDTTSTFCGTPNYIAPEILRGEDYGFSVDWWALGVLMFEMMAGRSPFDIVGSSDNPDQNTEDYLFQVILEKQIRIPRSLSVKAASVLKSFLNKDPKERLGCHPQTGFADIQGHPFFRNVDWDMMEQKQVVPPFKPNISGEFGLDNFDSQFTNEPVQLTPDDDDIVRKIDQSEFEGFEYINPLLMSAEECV
Briefly: PKCι IC50 IMAP fluorescence polarisation assay, full-length enzyme. It counts as biochemical. As to conditions: full length PKCi at 15 μM ATP; read-out: IC50 in IMAP assay against full length PKCi. (Fluorescence polarisation rises when a labelled molecule tumbles more slowly, as on binding a larger partner.)
As for `NC(CNc1nc(-c2ccncc2F)nc2c(-c3ccncc3)csc12)Cc1ccccc1` (stereo in doubt) [compound 429, (R)-N*1*-[2-(3-Fluoro-pyridin-4-yl)-7-pyridin-4-yl-thieno[3,2-d]pyrimidin-4-yl]-3-phenyl-propane-1,2-diamine], the IC50 lay in the range of 1000 to 10000 nM.

Consider `COc1cccc(C(=O)Nc2cc(-c3nc(N[C@@H]4CCNC4)c4sccc4n3)ccn2)c1` [compound 596, 3-Methoxy-N-{4-[4-((R)-pyrrolidin-3-ylamino)-thieno[3,2-d]pyrimidin-2-yl]-pyridin-2-yl}-benzamide], for which the IC50 was in the range of 100 to 1000 nM.

Regarding `Cc1sc2c(NC[C@@H](N)Cc3ccccc3)nc(-c3ccncc3)nc2c1C` [compound 325, (S)-N*1*-(6,7-Dimethyl-2-pyridin-4-yl-thieno[3,2-d]pyrimidin-4-yl)-3-phenyl-propane-1,2-diamine], the IC50 lay in the range of 100 to 1000 nM.

Regarding `NC(CNc1nc(-c2ccncc2F)nc2c(-c3cccnc3)csc12)Cc1ccccc1` (stereo in doubt) [compound 423, (R)-N*1*-[2-(3-Fluoro-pyridin-4-yl)-7-pyridin-3-yl-thieno[3,2-d]pyrimidin-4-yl]-3-phenyl-propane-1,2-diamine], the IC50 was in the range of 1000 to 10000 nM.

In the case of `CCC(O)(C#Cc1csc2c(NC[C@@H](N)Cc3ccccc3)nc(-c3ccncc3)nc12)CC` [compound 525, 1-[4-(2-Amino-3-phenyl-propylamino)-2-pyridin-4-yl-thieno[3,2-d]pyrimidin-7-yl]-3-ethyl-pent-1-yn-3-ol], the IC50 is 1000 to 10000 nM.

`CC(C)(C)c1ccc(-c2cc3nc(-c4ccncc4)nc(N4CCNCC4)c3s2)cc1` [compound 357, 6-(4-tert-Butyl-phenyl)-4-piperazin-1-yl-2-pyridin-4-yl-thieno[3,2-d]pyrimidine]: the concentration for half-maximal inhibition (IC50) fell in the range of 10000 to 40000 nM.

In the case of `CC(C)(C)c1sc2c(NC[C@@H](N)Cc3ccccc3)nc(-c3ccncc3)nc2c1-c1cccc(F)c1` [compound 436, (S)-N*1*-[6-tert-Butyl-7-(3-fluoro-phenyl)-2-pyridin-4-yl-thieno[3,2-d]pyrimidin-4-yl]-3-phenyl-propane-1,2-diamine], the IC50 lay within 10000 to 40000 nM.

With `Cn1cc(-c2csc3c(NC[C@@H](N)Cc4ccccc4)nc(-c4ccncc4)nc23)cn1` [compound 411, (S)-N*1*-[7-(1-Methyl-1H-pyrazol-4-yl)-2-pyridin-4-yl-thieno[3,2-d]pyrimidin-4-yl]-3-phenyl-propane-1,2-diamine], the half-maximal inhibitory concentration (IC50) was 1000 to 10000 nM.

As to `CCCC#Cc1csc2c(NC[C@@H](N)Cc3ccccc3)nc(-c3ccncc3)nc12` [compound 401, (S)-N*1*-(7-Pent-1-ynyl-2-pyridin-4-yl-thieno[3,2-d]pyrimidin-4-yl)-3-phenyl-propane-1,2-diamine], the IC50 fell in the range of 100 to 1000 nM.

Regarding `O=C(Nc1cc(-c2nc(N[C@@H]3CCNC3)c3sccc3n2)ccn1)c1ccc(F)cc1` [compound 618, 4-Fluoro-N-{4-[4-((R)-pyrrolidin-3-ylamino)-thieno[3,2-d]pyrimidin-2-yl]-pyridin-2-yl}-benzamide], the IC50 lay within 100 to 1000 nM.

For `Cc1sc2c(NC[C@@H](N)Cc3ccccc3)nc(-c3ccncc3)nc2c1-c1cc(F)ccc1OC(C)C` [compound 446, (S)-N*1*-[7-(5-Fluoro-2-isopropoxy-phenyl)-6-methyl-2-pyridin-4-yl-thieno[3,2-d]pyrimidin-4-yl]-3-phenyl-propane-1,2-diamine], the IC50 is 10000 to 40000 nM.

As to `Cc1noc(C)c1-c1csc2c(NCC(N)Cc3ccccc3)nc(-c3ccncc3F)nc12` (stereo in doubt) [compound 428, (R)-N*1*-[7-(3,5-Dimethyl-isoxazol-4-yl)-2-(3-fluoro-pyridin-4-yl)-thieno[3,2-d]pyrimidin-4-yl]-3-phenyl-propane-1,2-diamine], the IC50 fell in the range of 1000 to 10000 nM.

For `N[C@H](CNc1nc(-c2ccncc2)nc2c(-n3cccn3)csc12)Cc1ccccc1` [compound 561, (S)-3-Phenyl-N*1*-(7-pyrazol-1-yl-2-pyridin-4-yl-thieno [3,2-d]pyrimidin-4-yl)-propane-1,2-diamine], the IC50 fell in the range of 100 to 1000 nM.

In the case of `N#Cc1ccc(Nc2cc(-c3nc(N[C@@H]4CCNC4)c4sccc4n3)ccn2)nc1` [compound 604, 6-{4-[4-((R)-Pyrrolidin-3-ylamino)-thieno[3,2-d]pyrimidin-2-yl]-pyridin-2-ylamino}-nicotinonitrile], the IC50 was in the range of 100 to 1000 nM.

Turning to `Cc1sc2c(NCC(C)N)nc(-c3ccncc3)nc2c1Br` (stereo in doubt) [compound 330, (R)-N*1*-(7-Bromo-6-methyl-2-pyridin-4-yl-thieno[3,2-d]pyrimidin-4-yl)-propane-1,2-diamine], the IC50 fell in the range of 1000 to 10000 nM.

In the case of `NC(=O)CNc1nc(-c2ccncc2)nc2c(Br)csc12` [compound 338, 2-(7-Bromo-2-pyridin-4-yl-thieno[3,2-d]pyrimidin-4-ylamino)-acetamide], the IC50 was in the range of 10000 to 40000 nM.

For `N[C@H](CNc1nc(-c2ccncc2)nc2c(-c3ccccc3)csc12)Cc1ccccc1` [compound 417, (S)-3-Phenyl-N*1*-(7-phenyl-2-pyridin-4-yl-thieno[3,2-d]pyrimidin-4-yl)-propane-1,2-diamine], the IC50 was 100 to 1000 nM.

For the compound `CC(C)Cn1cc(-c2csc3c(NC[C@@H](N)Cc4ccccc4)nc(-c4ccncc4)nc23)cn1` [compound 394, (S)-N*1*-[7-(1-Isobutyl-1H-pyrazol-4-yl)-2-pyridin-4-yl-thieno[3,2-d]pyrimidin-4-yl]-3-phenyl-propane-1,2-diamine], the IC50 lay in the range of 1000 to 10000 nM.

Regarding `N[C@H](CNc1nc(-c2ccncc2)nc2c(-c3cccnc3)csc12)Cc1ccccc1` [compound 410, (S)-3-Phenyl-N*1*-(2-pyridin-4-yl-7-pyridin-3-yl-thieno[3,2-d]pyrimidin-4-yl)-propane-1,2-diamine], the IC50 is 1000 to 10000 nM.

Consider `CC(C)(O)C#Cc1csc2c(N[C@@H]3CCNC3)nc(-c3ccncc3)nc12` [compound 514, 2-Methyl-4-[2-pyridin-4-yl-4-((R)-pyrrolidin-3-ylamino)-thieno[3,2-d]pyrimidin-7-yl]-but-3-yn-2-ol], for which the IC50 lay within 100 to 1000 nM.

In the case of `Fc1c(-c2nc(N[C@@H]3CCNC3)c3sccc3n2)ccnc1Nc1ccccc1` [compound 619, [2-(3-Fluoro-2-phenylamino-pyridin-4-yl)-thieno[3,2-d]pyrimidin-4-yl]-(R)-pyrrolidin-3-yl-amine], the IC50 is 10000 to 40000 nM.

On to `NC(=O)CN1CC[C@@H](Nc2nc(-c3ccncc3)nc3ccsc23)C1` [compound 320, 2-[(R)-3-(2-Pyridin-4-yl-thieno[3,2-d]pyrimidin-4-ylamino)-pyrrolidin-1-yl]-acetamide], for which the IC50 fell in the range of 10000 to 40000 nM.

Regarding `c1cc(-c2nc(N[C@@H]3CCNC3)c3sccc3n2)cc(Sc2cc(-c3nc(N[C@@H]4CCNC4)c4sccc4n3)ccn2)n1` [compound 632], the IC50 lay in the range of 1000 to 10000 nM.

For the compound `c1ccc(-c2ccc(Nc3cc(-c4nc(N[C@@H]5CCNC5)c5sccc5n4)ccn3)nc2)cc1` [compound 601, {2-[2-(5-Phenyl-pyridin-2-ylamino)-pyridin-4-yl]-thieno[3,2-d]pyrimidin-4-yl}-(R)-pyrrolidin-3-yl-amine], the IC50 was in the range of 100 to 1000 nM.

On to `CC(O)C#Cc1csc2c(NC[C@@H](N)Cc3ccccc3)nc(-c3ccncc3)nc12` (stereo partly drawn) [compound 513, 4-[4-((S)-2-Amino-3-phenyl-propylamino)-2-pyridin-4-yl-thieno[3,2-d]pyrimidin-7-yl]-but-3-yn-2-ol], for which the IC50 is below 100 nM.

Staying with this assay, now noted: full length PKCi at 15 μM ATP; read-out: IC50 in IMAP assay against full length PKCi (Activity).
As to `N[C@H](CNc1nc(-c2ccncc2)nc2sc3c(c12)CCCC3)Cc1cccc(O)c1` [compound 66, 3-[(S)-2-Amino-3-(2-pyridin-4-yl-5,6,7,8-tetrahydro-benzo[4,5]thieno[2,3-d]pyrimidin-4-ylamino)-propyl]-phenol], the IC50 fell in the range of 100 to 1000 nM.

As for `N[C@H](CNc1nc(-c2ccncc2F)nc2sc3c(c12)CCCC3)Cc1ccccc1` [compound 101, (S)-N*1*-[2-(3-Fluoro-pyridin-4-yl)-5,6,7,8-tetrahydro-benzo[4,5]thieno[2,3-d]pyrimidin-4-yl]-3-phenyl-propane-1,2-diamine], the IC50 fell in the range of 1000 to 10000 nM.

As to `N[C@H](CNc1nc(-c2ccncc2)nc2sc3c(c12)CCCC3)Cc1ccccc1F` [compound 51, (S)-3-(2-Fluoro-phenyl)-N*1*-(2-pyridin-4-yl-5,6,7,8-tetrahydro-benzo[4,5]thieno[2,3-d]pyrimidin-4-yl)-propane-1,2-diamine], the IC50 was 100 to 1000 nM.

For the compound `Cc1ccccc1C[C@H](N)CNc1nc(-c2ccncc2)nc2sc3c(c12)CCCC3` [compound 53, (S)-N*1*-(2-Pyridin-4-yl-5,6,7,8-tetrahydro-benzo[4,5]thieno[2,3-d]pyrimidin-4-yl)-3-o-tolyl-propane-1,2-diamine], the IC50 lay in the range of 100 to 1000 nM.

With `CC(C)C(=O)N1CCc2c(sc3nc(-c4ccncc4)nc(NCCN)c23)C1` [compound 107, 1-[4-(2-Amino-ethylamino)-2-pyridin-4-yl-5,8-dihydro-6H-pyrido[4′,3′:4,5]thieno[2,3-d]pyrimidin-7-yl]-2-methyl-propan-1-one], the IC50 is 10000 to 40000 nM.
